Measured values taken from patent US20060035925A1, “SUBSTITUTED 4H-CHROMENES AND ANALOGS AS ACTIVATORS OF CASPASES AND INDUCERS OF APOPTOSIS AND THE USE THEREOF” (Cytovia, Inc., priority 1999, published 2006).
Where two headings read alike, the source gives them in different places.

Assays:
[1] = system: Human breast cancer cell line T-47D; test: Caspase cascade activation assay (N-(Ac-DEVD)-N'-ethoxycarbonyl-R110 fluorogenic substrate) in T-47D cells; type: cell-based; conditions: for Caspase activity (Ratio) T-47D: 24 h incubation with compound, ratio of net RFU (T=3 h) of test compound to control; for EC50: 24 h incubation, sigmoidal dose-response, read-out: Caspase potency EC50 (nM) T-47D
In short: (§1)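 Cells were exposed for 24 h at 37 °C to test compound at 0.016–1 μM final. Lysed with lysolecithin buffer (pH 7.2, DTT) containing 20 μM Ac-DEVD-R110 substrate, and fluorescence (ex 485/em 530 nm) read at 0 and 3 h at room temperature. EC50 from sigmoidal fit of net RFU ratio to control.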

[2] = system: Human breast cancer cell line ZR-75-1; test: Caspase cascade activation assay (N-(Ac-DEVD)-N'-ethoxycarbonyl-R110 fluorogenic substrate) in ZR-75-1 cells; type: cell-based; conditions: ZR-75-1 cells; for EC50: 24 h incubation, sigmoidal dose-response, read-out: Caspase potency EC50 (nM) ZR-75-1; for Caspase activity (Ratio) ZR-75-1: 24 h incubation with compound, ratio of net RFU (T=3 h) of test compound to control
In short: as §1

Structure (SMILES) | EC50 ([1]; Homo sapiens, T47D, 24 h) | EC50 ([2]; Homo sapiens, ZR-75-1, 24 h) | EC50 [1] | EC50 [2] | Caspase activity (Ratio) T-47D [1] | Caspase activity (Ratio) ZR-75-1 [2]
COc1ccc2c(c1)OC(N)=C(C#N)C2c1ccccc1 (stereo not shown) [Example 26, 2-Amino-3-cyano-7-methoxy-4-phenyl-4H-chromene] | 140 nM | 82 nM |  |  | 3.5 | 6.4
N#CC1=C(N)OC2C3=CC=NC3=CC=C2C1c1cccnc1 (stereo not shown) [Example 18, 2-Amino-3-cyano-4-(3-pyridyl)-4H-indolo[4,5-b]pyran] | 56 nM | 38 nM |  |  | 9.0 | 8.8
COc1cc(C2C(C#N)=C(N)Oc3cc(O)ccc32)cc(Br)c1OC (stereo not shown) [Example 1, 2-Amino-3-cyano-7-hydroxy-4-(3-bromo-4,5-dimethoxyphenyl)-4H-chromene] | 153 nM | 94 nM |  |  | 5.1 | 10.8
N#CC1=C(N)Oc2cc(N)ccc2C1c1cncc(Br)c1 (stereo not shown) [Example 37, 2,7-Diamino-3-cyano-4-(5-bromo-3-pyridyl)-4H-chromene] | 57 nM | 31 nM |  |  | 6.4 | 3.4
N#CC1=C(N)OC2C(=CC=C3C=CN=C32)C1c1cccc(C#N)c1 (stereo not shown) [Example 53, 2-Amino-3-cyano-4-(3-cyano-phenyl)-4H-indolo[7,6-b]pyran] | 79.7 nM | 26.4 nM |  |  | 10.1 | 7.0
N#CC1=C(N)OC2C(=CC=C3C=CN=C32)C1c1cncc(C#N)c1 (stereo not shown) [Example 60, 2-Amino-3-cyano-4-(5-cyano-pyridin-3-yl)-4H-indolo[7,6-b]pyran] | 388 nM | 57 nM |  |  | 6.7 | 5.5
COc1ccc2c(c1)OC(N)=C(C#N)C2c1cccc(Cl)c1 (stereo not shown) [Example 10, 2-Amino-3-cyano-7-methoxy-4-(3-chlorophenyl)-4H-chromene] | 48 nM | 36 nM |  |  | 6.1 | 9.0
CCNc1ccc2c(c1)OC(N)=C(C#N)C2c1cc(OC)cc(OC)c1 (stereo not shown) [Example 14, 2-Amino-3-cyano-7-ethylamino-4-(3,5-dimethoxyphenyl)-4H-chromene] | 10 nM | 10 nM |  |  | 7 | 7.7

The next lines start with results.

EC50 ([1]; Homo sapiens, T47D, 24 h) | EC50 ([2]; Homo sapiens, ZR-75-1, 24 h) | EC50 [1] | EC50 [2] | Structure (SMILES) | Caspase activity (Ratio) T-47D [1] | Caspase activity (Ratio) ZR-75-1 [2]
 |  | 29.4 nM | 26.7 nM | COC(=O)C1=C(N)Oc2c(ccc3[nH]ccc23)C1c1cc(Br)c(OC)c(OC)c1 (stereo not shown) [Example 73] | 7.5 | 9.0
> 10000 nM | 4100 nM |  |  | CNC1=C(C#N)C(c2cc(Br)c(OC)c(OC)c2)c2ccc3ccn(C)c3c2O1 (stereo not shown) [Example 76, 3-Cyano-4-(3-bromo-4,5-dimethoxyphenyl)-2-methylamino-9-methyl-4H-pyrrolo[3,2-h]chromene] | 2.0 | 2.3
1980 nM | 1470 nM |  |  | COc1cc(C2(C)C(C#N)=C(N)Oc3cc(N(C)C)ccc32)cc(Br)c1OC (stereo not shown) [Example 68A, 2-Amino-3-cyano-7-dimethylamino-4-(3-bromo-4,5-dimethoxyphenyl)-4-methylchromene] | 6.8 | 6.5
 |  | > 1000 nM | 537 nM | COc1cccc(C2C(C#N)=C(N)Oc3c2ccc2nccnc32)c1 (stereo not shown) [Example 78, 2-Amino-3-cyano-4-(3-methoxyphenyl)-4H-pyrazino[2,3-h]chromene] | 1.8 | 3.6
144 nM | 75.3 nM |  |  | COc1cc(C2C(C#N)=C(N)Oc3cc(Br)ccc32)cc(Br)c1OC (stereo not shown) [Example 62, 2-Amino-7-bromo-4-(3-bromo-4,5-dimethoxy-phenyl)-3-cyano-4H-chromene] | 6.6 | 6.0
